Reference: patent US20100285957A1, “THIAZOLYLOXYPHENYLAMIDINES OR THIADIAZOLYLOXYPHENYLAMIDINES AND THEIR USE AS FUNGICIDES” (Bayer CropScience AG, priority 2007, published 2010)
Read-outs that look alike come from different tables or passages of the source.

How the values were obtained:
[1] = log P determination (neutral / acidic, pH 2.3)
[2] = physchem
[3] = tested on: Uromyces appendiculatus; test: Uromyces test (beans)/protective; format: in vivo; conditions: 240 h, 100 ppm active substance, protective, evaluation 10 days after inoculation, read-out: degree of effectiveness
Description: Uromyces Test (Beans)/Protective [table] To prepare a suitable active substance composition, 1 part by weight of active substance is mixed with the given amounts of solvents and emulsifier and the concentrate is diluted to the desired concentration using water. For the testing of protective effectiveness, young plants are sprayed with the active substance composition in the application rate given. After the spray coating has been dried on, the plants are inoculated with an aqueous suspension of the spores of the bean rust pathogen Uromyces appendiculatus and then remain in an incubation chamber at approximately 20° C. and 100% relative humidity for 1 day. The plants are then placed in a greenhouse at approximately 21° C. and a relative humidity of approximately 90%. Evaluation is carried out 10 days after the inoculation. In this connection, 0% means a degree of effectiveness corresponding to that of the control, while a degree of effectiveness of 100% means that no infestation is observed.

[4] = tested on: Phakopsora pachyrhizi; test: Phakopsora test (soya)/protective; format: in vivo; conditions: 264 h, 100 ppm active substance, protective, evaluation 11 days after inoculation, read-out: degree of effectiveness
Description: Phakopsora Test (Soya)/Protective
(§1) To prepare a suitable active substance composition, 1 part by weight of active substance is mixed with the given amounts of solvent and emulsifier and the concentrate is diluted to the desired concentration using water.
(§2) For the testing of protective effectiveness, young plants are sprayed with the active substance composition in the application rate given. After the spray coating has been dried on, the plants are inoculated with an aqueous suspension of the spores of Phakopsora pachyrhizi and then remain in an incubation chamber at approximately 20° C. and 80% relative humidity for 1 day.
Evaluation is carried out 11 days after the inoculation. In this connection, 0% means a degree of effectiveness corresponding to that of the control, while a degree of effectiveness of 100% means that no infestation is observed.

[5] = tested on: Pyrenophora teres; test: Pyrenophora teres test (barley)/protective; format: in vivo; conditions: 500 ppm active substance, protective, evaluation 7-9 days after inoculation, read-out: degree of effectiveness
Description: Pyrenophora teres Test (Barley)/Protective
as §1
For the testing of protective effectiveness, young barley plants are sprayed with the active substance composition in the application rate given. 1 day after the treatment, the plants are inoculated with an aqueous suspension of the spores of Pyrenophora teres and then remain at 100% relative humidity and 20° C. for 48 h. Subsequently, the plants are placed in a greenhouse at 80% relative humidity and a temperature of 20° C.
Evaluation is carried out 7-9 days after the inoculation. In this connection, 0% means a degree of effectiveness corresponding to that of the control, while a degree of effectiveness of 100% means that no infestation is observed.

[6] = tested on: Alternaria solani; test: Alternaria test (tomato)/protective; format: in vivo; conditions: 168 h, 500 ppm active substance, protective, evaluation 7 days after inoculation, read-out: degree of effectiveness
Description: Alternaria Test (Tomato)/Protective [table] To prepare a suitable active substance composition, 1 part by weight of active substance is mixed with the given amounts of solvent and emulsifier and the concentrate is diluted to the desired concentration using water. For the testing of protective effectiveness, young tomato plants are sprayed with the active substance composition in the application rate given. 1 day after the treatment, the plants are inoculated with a suspension of the spores of Alternaria solani and then stand at 100% relative humidity and 20° C. for 24 h. Subsequently, the plants stand at 96% relative humidity and a temperature of 20° C. Evaluation is carried out 7 days after the inoculation. In this connection, 0% means a degree of effectiveness corresponding to that of the control, while a degree of effectiveness of 100% means that no infestation is observed.

[7] = tested on: Puccinia recondita var. tritici; test: Puccinia test (wheat)/protective; format: in vivo; conditions: 240 h, 1000 ppm active substance, protective, evaluation 10 days after inoculation, read-out: degree of effectiveness
Description: Puccinia Test (Wheat)/Protective
as §1
For the testing of protective effectiveness, young plants are sprayed with the active substance composition in the application rate given. After the spray coating has been dried on, the plants are sprayed with a suspension of the conidia of Puccinia recondita var. tritici. The plants remain in an incubation chamber at 20° C. and 100% relative humidity for 48 hours.
The plants are then placed in a greenhouse at a temperature of approximately 20° C. and a relative humidity of 80%, in order to encourage the development of rust pustules.
Evaluation is carried out 10 days after the inoculation. In this connection, 0% means a degree of effectiveness corresponding to that of the control, while a degree of effectiveness of 100% means that no infestation is observed.

[8] = tested on: Blumeria graminis f.sp. hordei; test: Blumeria graminis test (barley)/protective; format: in vivo; conditions: 168 h, 1000 ppm active substance, protective, evaluation 7 days after inoculation, read-out: degree of effectiveness
Description: Blumeria graminis Test (Barley)/Protective
as §1
For the testing of protective effectiveness, young plants are sprayed with the active substance composition in the application rate given.
After the spray coating has been dried on, the plants are dusted with spores of Blumeria graminis f.sp. hordei.
The plants are placed in a greenhouse at a temperature of approximately 20° C. and a relative humidity of approximately 80%, in order to encourage the development of mildew pustules.
Evaluation is carried out 7 days after the inoculation. In this connection, 0% means a degree of effectiveness corresponding to that of the control, while a degree of effectiveness of 100% means that no infestation is observed.

[9] = tested on: Sphaerotheca fuliginea; test: Sphaerotheca test (cucumber)/protective; format: in vivo; conditions: Podosphaera fuliginea, 168 h, 100 ppm active substance, protective, evaluation 7 days after inoculation, read-out: degree of effectiveness
Description: Sphaerotheca Test (Cucumber)/Protective [table] To prepare a suitable active substance composition, 1 part by weight of active substance is mixed with the given amounts of solvents and emulsifier and the concentrate is diluted to the desired concentration using water. For the testing of protective effectiveness, young plants are sprayed with the active substance composition in the application rate given. After the spray coating has been dried on, the plants are inoculated with an aqueous suspension of spores of Sphaerotheca fuliginea. The plants are then placed in a greenhouse at approximately 23° C. and a relative humidity of approximately 70%. Evaluation is carried out 7 days after the inoculation. In this connection, 0% means a degree of effectiveness corresponding to that of the control, while a degree of effectiveness of 100% means that no infestation is observed.

[10] = tested on: Cochliobolus miyabeanus; test: Cochliobolus test (rice)/protective; format: in vivo; conditions: 250 ppm active substance, protective, evaluation 4 days after inoculation
Description: Cochliobolus Test (Rice)/Protective
as §1
as §2, with “Cochliobolus miyabeanus” for “Phakopsora pachyrhizi”, “25°” for “20°”, “100%” for “80%”
Evaluation is carried out 4 days after the inoculation. In this connection, 0% means a degree of effectiveness corresponding to that of the control, while a degree of effectiveness of 100% means that no infestation is observed.

| Compound | log P acidic [1] | logP ([2]; pH 2.3) | pest or weed control at 100 ppm [3] | pest or weed control at 100 ppm [4] | pest or weed control at 500 ppm [5] | pest or weed control at 500 ppm [6] | pest or weed control at 1000 ppm [7] | pest or weed control at 1000 ppm [8] | pest or weed control at 100 ppm [9] | also measured |
| --- | --- | --- | --- | --- | --- | --- | --- | --- | --- | --- |
| Cc1cc(Oc2nc(C3CC3)ns2)c(C)cc1/N=C/N1CCCCC1 [Compound 3, 4-[(3-Cyclopropyl-1,2,4-thiadiazol-5-yl)oxy]-2,5-dimethyl-N-[(1E)-piperidin-1-ylmethyl-idene]aniline] | 1.75 |  |  |  |  |  |  |  |  |  |
| Cc1cc(Oc2nc(C3CC3)ns2)c(C)cc1/N=C/N1CCSCC1 [Compound 4, 4-[(3-Cyclopropyl-1,2,4-thiadiazol-5-yl)oxy]-2,5-dimethyl-N-[(1E)-thiomorpholin-4-ylmethyl-idene]aniline] | 1.73 |  |  |  |  |  |  |  |  |  |
| Cc1cc(Oc2nc(C3(Cl)CC3)cs2)c(C)cc1/N=C/N1CCCCC1 [Compound 6, 4-{[4-(1-Chlorocyclopropyl)-1,3-thiazol-2-yl]oxy}-2,5-dimethyl-N-[(1E)-piperidin-1-ylmethyl-idene]aniline] |  |  |  |  |  |  |  |  |  | log P neutral ([1]; neutral): 5.49 |
| CCN(C)C=Nc1cc(C)c(Oc2nc(C3(C)CC3)ns2)cc1C [Compound 9, N′-(2,5-Dimethyl-4-{[3-(1-methylcyclopropyl)-1,2,4-thiadiazol-5-yl]oxy}phenyl)-N-ethyl-N-methylimidoformamide] |  | 1.94 | ≥ 70% | ≥ 80% | ≥ 70% | ≥ 70% | ≥ 70% | ≥ 70% | ≥ 70% |  |
| Cc1cc(Oc2nc(C3(C)CC3)ns2)c(C)cc1/N=C/N1CCCCC1 [Compound 11, 5-Dimethyl-4-{[3-(1-methylcyclopropyl)-1,2,4-thiadiazol-5-yl]oxy}-N-[(1E)-piperidin-1-yl-methylidene]aniline] | 2.13 |  |  |  |  |  |  |  |  |  |
| CCN(C)C=Nc1cc(C)c(Oc2nc(C3CC3C)ns2)cc1C (stereo not shown) [Compound 14, N′-(2,5-Dimethyl-4-{[3-(2-methylcyclopropyl)-1,2,4-thiadiazol-5-yl]oxy}phenyl)-N-ethyl-N-methylimidoformamide] |  | 1.96 | ≥ 70% | ≥ 80% | ≥ 70% | ≥ 70% | ≥ 70% | ≥ 70% | ≥ 70% |  |
| Cc1cc(Oc2nc(C3CC3C)ns2)c(C)cc1N=CN(C)C(C)C (stereo not shown) [Compound 15, N′-(2,5-Dimethyl-4-{[3-(2-methylcyclopropyl)-1,2,4-thiadiazol-5-yl]oxy}phenyl)-N-methyl-N-(1-methylethyl)imidoformamide] |  | 1.74 | ≥ 70% | ≥ 80% | ≥ 70% | ≥ 70% | ≥ 70% | ≥ 70% | ≥ 70% |  |
| CCN(C)C=Nc1cc(C)c(Oc2nc(C3(C)CC3)c(Cl)s2)cc1C [Compound 21, N′-(4-{[5-Chloro-4-(1-methylcyclopropyl)-1,3-thiazol-2-yl]oxy}-2,5-dimethylphenyl)-N-ethyl-N-methylimidoformamide] |  | 1.97 | ≥ 70% | ≥ 80% | ≥ 70% | ≥ 70% | ≥ 70% | ≥ 70% | ≥ 70% | logP [2]: 6 |
| Cc1cc(Oc2nc(C3(C)CC3)cs2)c(C)cc1/N=C/N1CCCCC1 [Compound 23, 2,5-Dimethyl-4-{[4-(1-methylcyclopropyl)-1,3-thiazol-2-yl]oxy}-N-[(1E)-piperidin-1-ylmethyl-idene]aniline] | 2.05 |  |  |  |  |  |  |  |  |  |
| CCN(C)C=Nc1cc(C)c(Oc2nc(C3(C)CC3(Cl)Cl)ns2)cc1C (stereo not shown) [Compound 25, N′-(4-{[3-(2,2-Dichloro-1-methylcyclopropyl)-1,2,4-thiadiazol-5-yl]oxy}-2,5-dimethylphenyl)-N-ethyl-N-methylimidoformamide] |  | 2.03 | ≥ 70% | ≥ 80% | ≥ 70% | ≥ 70% |  |  | ≥ 70% | degree of effectiveness [10]: ≥ 80% |
| [5-Chloro-4-(1-methylcyclopropyl)-1,3-thiazol-2-yl]oxy-2,5-dimethylaniline |  |  |  |  |  |  |  |  |  | log P (pH 2.3): 4.13 |
